The text below walks through data of US20150274664A1 (MERCK SHARP & DOHME CORP., priority 2012, published 2015).

Structures are written as SMILES.

In the experiment the target is T1, human SNP variant (S309L) of GPR119 (Homo sapiens, UniProt Q8TDV5, S309L).
T1 construct: expressed in transfected cells; host or cells: HEK293 Flp-In (Invitrogen)
T1 sequence (Q8TDV5 1-335 S309L): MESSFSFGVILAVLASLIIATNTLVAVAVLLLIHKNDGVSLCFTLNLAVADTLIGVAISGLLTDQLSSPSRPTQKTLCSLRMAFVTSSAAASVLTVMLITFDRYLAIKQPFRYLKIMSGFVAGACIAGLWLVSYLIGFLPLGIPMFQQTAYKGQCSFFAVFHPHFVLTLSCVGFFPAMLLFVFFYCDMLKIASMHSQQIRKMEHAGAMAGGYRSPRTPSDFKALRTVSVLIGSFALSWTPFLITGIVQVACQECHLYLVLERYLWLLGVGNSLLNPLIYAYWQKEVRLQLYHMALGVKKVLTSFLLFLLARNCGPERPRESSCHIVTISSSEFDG
Description: GPR119 signaling, cAMP homogenous time resolved fluorescence (HTRF) assay. The experiment is classed as cell-based. To be noted: HEK293 Flp-In cells stably transfected with human GPR119 (S309L), HTRF kit. From the text:
Measurement of GPR119 Signaling Using a Cyclic AMP (cAMP) Homogenous Time Resolved Fluorescence (HTRF) Assay
Chinese hamster ovary (CHO) cell lines stably transfected with the permissive guanine nucleotide binding protein alpha 15 (Gals) and murine GPR119 were maintained in DMEM media containing FBS, penicillin-streptomycin, puromycin, and G418 (geneticin). Alternatively, human embryonic kidney (HEK)293 Flp-In cells (Invitrogen, Carlsbad, Calif.) were stably transfected with a human SNP variant (S309L) of GPR119 and maintained in DMEM media containing FBS, penicillin-streptomycin, and hygromycin. Agonist activation of the GPR119 receptor was measured in receptor transfected cells described above, treated with compounds of this invention, using a commercial homogenous time resolved fluorescence (HTRF) kit for measurement of cAMP (CisBio, Bedford, Mass.). The assay was performed in 96-well half-volume plates (murine) or 384-well plates (human) following the manufacturers instructions. Briefly, suspended cells were incubated with a dose titration of test compound at RT for 60 min, lysed, and incubated with HTRF reagents for an additional 60 min. The plate was read using an Envision multilabel reader (Perkin Elmer) adjusted to read time resolved fluorescence and the cAMP concentrations were extrapolated from a cAMP calibration curve. […] The concentration of test compound required to stimulate a half-maximal response (EC50), and efficacy as compared to an internal agonist control, was determined from a sigmoidal 4-parameter curve fit of the resulting plot of normalized activity versus compound concentration.
Regarding `CS(=O)(=O)c1ccc(COC[C@H]2C[C@@H]2C2CCN(c3ncc(Cl)cn3)CC2)nc1` [Example 1, 5-chloro-2-(4-((1R,2S)-2-(((5-(methylsulfonyl)pyridin-2-yl)methoxy)methyl)cyclopropyl)piperidin-1-yl)pyrimidine], the EC50 was found to be 3.8 nM.
Then `CS(=O)(=O)c1ccc(COC[C@H]2C[C@@H]2C2CCN(c3ncc(Cl)cn3)CC2)cc1` [Example 2, 5-chloro-2-(4-((1R,2S)-2-(((4-(methylsulfonyl)benzyl)oxy)methyl)cyclopropyl)piperidin-1-yl)pyrimidine], with 1.2 nM; and `CCS(=O)(=O)c1ccc(COC[C@H]2C[C@@H]2C2CCN(c3ncc(Cl)cn3)CC2)cc1` [Example 3, 5-chloro-2-(4-((1R,2S)-2-(((4-(ethylsulfonyl)benzyl)oxy)methyl)cyclopropyl)piperidin-1-yl)pyrimidine], with 0.73 nM; and `CS(=O)(=O)c1ccc(COC[C@H]2C[C@@H]2C2CCN(c3ncc(Cl)cn3)CC2)cc1F` [Example 5, 5-chloro-2-(4-((1R,2S)-2-(((3-fluoro-4-(methylsulfonyl)benzyl)oxy)methyl)cyclopropyl)piperidin-1-yl)pyrimidine], with 1 nM.
`Cc1cnc(N2CCC([C@H]3C[C@@H]3COCc3ccc(S(C)(=O)=O)cc3)CC2)nc1` [Example 6, 5-methyl-2-(4-((1R,2S)-2-(((4-(methylsulfonyl)benzyl)oxy)methyl)cyclopropyl)piperidin-1-yl)pyrimidine] displayed an EC50 of 7.1 nM.
In turn, `CCS(=O)(=O)c1ccc(COC[C@H]2C[C@@H]2C2CCN(c3ncc(C)cn3)CC2)cc1` [Example 7, 2-(4-((1R,2S)-2-(((4-(ethylsulfonyl)benzyl)oxy)methyl)cyclopropyl)piperidin-1-yl)-5-methylpyrimidine] returned an EC50 of 5.8 nM.
`CCc1cnc(N2CCC([C@H]3C[C@@H]3COCc3ccc(S(C)(=O)=O)cc3)CC2)nc1` [Example 10, 5-ethyl-2-(4-((1R,2S)-2-(((4-(methylsulfonyl)benzyl)oxy)methyl)cyclopropyl)piperidin-1-yl)pyrimidine]: the concentration giving a half-maximal response (EC50) was 1.9 nM.
Compound `CS(=O)(=O)c1ccc(COC[C@H]2C[C@@H]2C2CCN(C(=O)OC3CC3)CC2)cc1F` [Example 15, cyclopropyl 4-((1R,2S)-2-(((3-fluoro-4-(methylsulfonyl)benzyl)oxy)methyl)cyclopropyl)piperidine-1-carboxylate] had an EC50 of 2.4 nM.
For the compound `CS(=O)(=O)c1ccc(COC[C@H]2C[C@@H]2C2CCN(C(=O)OC3CC3)CC2)cc1` [Example 16, cyclopropyl 4-((1R,2S)-2-(((4-(methylsulfonyl)benzyl)oxy)methyl)cyclopropyl)piperidine-1-carboxylate], the EC50 came to 5.7 nM.
To `CC1(OC(=O)N2CCC([C@H]3C[C@@H]3COCc3ccc(S(C)(=O)=O)c(F)c3)CC2)CC1` [Example 17, 1-methylcyclopropyl 4-((1R,2S)-2-(((3-fluoro-4-(methylsulfonyl)benzyl)oxy)methyl)cyclopropyl)piperidine-1-carboxylate] belongs 4.6 nM; to `CC1(OC(=O)N2CCC([C@H]3C[C@@H]3COCc3ccc(S(C)(=O)=O)cc3)CC2)CC1` [Example 18, 1-methylcyclopropyl 4-((1R,2S)-2-(((4-(methylsulfonyl)benzyl)oxy)methyl)cyclopropyl)piperidine-1-carboxylate], 6.4 nM; to `CC(C)OC(=O)N1CCC([C@H]2C[C@@H]2COCc2ccc(S(C)(=O)=O)cc2)CC1` [Example 19, isopropyl 4-((1R,2S)-2-(((4-(methylsulfonyl)benzyl)oxy)methyl)cyclopropyl)piperidine-1-carboxylate], 9.1 nM.
Then `CC(C)OC(=O)N1CCC([C@H]2C[C@@H]2COCc2ccc(S(C)(=O)=O)c(F)c2)CC1` [Example 20, isopropyl 4-((1R,2S)-2-(((3-fluoro-4-(methylsulfonyl)benzyl)oxy)methyl)cyclopropyl)piperidine-1-carboxylate], with 5.8 nM; and `CC(C)c1noc(N2CCC([C@H]3C[C@@H]3COCc3ccc(S(C)(=O)=O)cc3)CC2)n1` [Example 21, 3-isopropyl-5-(4-((1R,2S)-2-((4-(methylsulfonyl)benzyloxy)methyl)cyclopropyl)piperidin-1-yl)-1,2,4-oxadiazole], with 3.8 nM.
Then `CC(C)c1noc(N2CCC([C@H]3C[C@@H]3COCc3ccc(S(C)(=O)=O)c(F)c3)CC2)n1` [Example 22, 5-(4-((1R,2S)-2-(((3-fluoro-4-(methylsulfonyl)benzyl)oxy)methyl)cyclopropyl)piperidin-1-yl)-3-isopropyl-1,2,4-oxadiazole], with 3.2 nM; and `Cc1nnc(-c2ccc(OCC[C@@H]3C[C@H]3C3CCN(c4ncc(Cl)cn4)CC3)cc2F)o1` [Example 64, 2-(4-(2-((1S,2S)-2-(1-(5-chloropyrimidin-2-yl)piperidin-4-yl)cyclopropyl)ethoxy)-2-fluorophenyl)-5-methyl-1,3,4-oxadiazole], with 8.4 nM; and `CS(=O)(=O)c1ccc(OCC[C@@H]2C[C@H]2C2CCN(c3nc(C4CC4)no3)CC2)nc1` [Example 112, 3-cyclopropyl-5-(4-((1S,2S)-2-(2-((5-(methylsulfonyl)pyridin-2-yl)oxy)ethyl)cyclopropyl)piperidin-1-yl)-1,2,4-oxadiazole], with 6.1 nM.
In turn, `CCCc1noc(N2CCC([C@@H]3C[C@H]3CCOc3ccc(S(C)(=O)=O)cn3)CC2)n1` [Example 113, 5-(4-((1S,2S)-2-(2-((5-(methylsulfonyl)pyridin-2-yl)oxy)ethyl)cyclopropyl)piperidin-1-yl)-3-propyl-1,2,4-oxadiazole] had a half-maximal effective concentration (EC50) of 7.9 nM.
Then `CS(=O)(=O)c1ccc(OCC[C@@H]2C[C@H]2C2CCN(c3nc(C4CCC4)no3)CC2)nc1` [Example 114, 3-cyclobutyl-5-(4-((1S,2S)-2-(2-((5-(methylsulfonyl)pyridin-2-yl)oxy)ethyl)cyclopropyl)piperidin-1-yl)-1,2,4-oxadiazole], with 4.8 nM.
Turning to `COCc1cnc(N2CCC([C@H]3C[C@@H]3CCNc3ncc(-n4cnnn4)cn3)CC2)nc1` [Example 124, N-(2-((1R,2S)-2-(1-(5-(methoxymethyl)pyrimidin-2-yl)piperidin-4-yl)cyclopropyl)ethyl)-5-(1H-tetrazol-1-yl)pyrimidin-2-amine], the EC50 came to 5.2 nM.
The compound `CS(=O)(=O)c1ccc(OCC[C@@]2(C#N)C[C@@H]2C2CCN(c3ncc(Cl)cn3)CC2)cc1` [Example 127, (1S,2R)-2-(1-(5-chloropyrimidin-2-yl)piperidin-4-yl)-1-(2-(4-(methylsulfonyl)phenoxy)ethyl)cyclopropanecarbonitrile] had an EC50 of 3 nM.
`CS(=O)(=O)c1ccc(NCC[C@H]2C[C@@H]2C2CCN(c3ncc(Cl)cn3)CC2)cc1` [Example 128, N-(2-((1R,2S)-2-(1-(5-chloropyrimidin-2-yl)piperidin-4-yl)cyclopropyl)ethyl)-4-(methylsulfonyl)aniline] returned an EC50 of 6.7 nM.
